Test results from PubChem BioAssay (NCI).
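These data come from cells grown in 96-well plates and exposed to compound for 48 hours at five concentrations. Abbreviation: GI50, concentration required for 50% inhibition of growth. At the TGI there is no net growth.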

What was measured:
Assay in all cases: NCI-60 cell line screen, 48 h
NCI-H23 lung = tested on: NCI-H23 lung
HOP-62 NSCLC = tested on: HOP-62 NSCLC
NCI-H226 lung = tested on: NCI-H226 lung
RPMI-8226 leukemia = tested on: RPMI-8226 leukemia
SF-268 CNS = tested on: SF-268 CNS
A498 renal = tested on: A498 renal
CCRF-CEM leukemia = tested on: CCRF-CEM leukemia
NCI-H460 lung = tested on: NCI-H460 lung
SR leukemia = tested on: SR leukemia
U251 CNS = tested on: U251 CNS
LOX IMVI melanoma = tested on: LOX IMVI melanoma
T-47D breast = tested on: T-47D breast
SF-539 CNS = tested on: SF-539 CNS
CAKI-1 renal = tested on: CAKI-1 renal
RXF 393 renal = tested on: RXF 393 renal
K-562 leukemia = tested on: K-562 leukemia
HT29 colon = tested on: HT29 colon
HL-60(TB) leukemia = tested on: HL-60(TB) leukemia
MDA-MB-231 breast = tested on: MDA-MB-231 breast
HOP-92 NSCLC = tested on: HOP-92 NSCLC
UACC-257 melanoma = tested on: UACC-257 melanoma
PC-3 prostate = tested on: PC-3 prostate
EKVX NSCLC = tested on: EKVX NSCLC
HS 578T breast = tested on: HS 578T breast
UACC-62 melanoma = tested on: UACC-62 melanoma
COLO 205 colon = tested on: COLO 205 colon
MOLT-4 leukemia = tested on: MOLT-4 leukemia
HCT-15 colon = tested on: HCT-15 colon
OVCAR-4 ovarian = tested on: OVCAR-4 ovarian
MDA-MB-468 breast = tested on: MDA-MB-468 breast
SK-MEL-2 melanoma = tested on: SK-MEL-2 melanoma
ACHN renal = tested on: ACHN renal
NCI-H522 lung = tested on: NCI-H522 lung
BT-549 breast = tested on: BT-549 breast
M14 melanoma = tested on: M14 melanoma
SN12C renal = tested on: SN12C renal
OVCAR-3 ovarian = tested on: OVCAR-3 ovarian
SF-295 CNS = tested on: SF-295 CNS
IGROV1 ovarian = tested on: IGROV1 ovarian
NCI/ADR-RES ovarian = tested on: NCI/ADR-RES ovarian
OVCAR-5 ovarian = tested on: OVCAR-5 ovarian
786-0 renal = tested on: 786-0 renal
KM12 colon = tested on: KM12 colon
SNB-19 CNS = tested on: SNB-19 CNS
OVCAR-8 ovarian = tested on: OVCAR-8 ovarian
A549 NSCLC = tested on: A549 NSCLC
MDA-MB-435 = tested on: MDA-MB-435
MALME-3M melanoma = tested on: MALME-3M melanoma
SK-OV-3 ovarian = tested on: SK-OV-3 ovarian
MCF7 breast = tested on: MCF7 breast
SNB-75 CNS = tested on: SNB-75 CNS
UO-31 renal = tested on: UO-31 renal
SK-MEL-5 melanoma = tested on: SK-MEL-5 melanoma
HCT-116 colon = tested on: HCT-116 colon
TK-10 renal = tested on: TK-10 renal
SK-MEL-28 melanoma = tested on: SK-MEL-28 melanoma
DU-145 prostate = tested on: DU-145 prostate

## CCOc1ccc(/C=N/NC(=O)Cn2nc(Cc3ccc([N+](=O)[O-])cc3)c3onc(C)c3c2=O)cc1
NCI-H23 lung
  GI50: 7.06 µM
  TGI: 35.1 µM
HOP-62 NSCLC
  GI50: 2.55 µM
  TGI: 6.99 µM
NCI-H226 lung
  GI50: 2.43 µM
  TGI: 6.99 µM
RPMI-8226 leukemia
  GI50: > 100 µM
  TGI: > 100 µM
SF-268 CNS
  GI50: 5.75 µM
  TGI: 68.5 µM
A498 renal
  GI50: 4.88 µM
  TGI: 21 µM
CCRF-CEM leukemia
  GI50: > 100 µM
  TGI: > 100 µM
NCI-H460 lung
  GI50: 4.37 µM
  TGI: > 100 µM
SR leukemia
  GI50: > 100 µM
  TGI: > 100 µM
U251 CNS
  GI50: 2.3 µM
  TGI: 7.06 µM
LOX IMVI melanoma
  GI50: 5.34 µM
  TGI: > 100 µM
T-47D breast
  GI50: 2.57 µM
  TGI: > 100 µM
SF-539 CNS
  GI50: 3.1 µM
  TGI: 10.1 µM
CAKI-1 renal
  GI50: 3.08 µM
  TGI: 12.3 µM
RXF 393 renal
  GI50: 2.57 µM
  TGI: 7.35 µM
K-562 leukemia
  GI50: > 100 µM
  TGI: > 100 µM
HT29 colon
  GI50: > 100 µM
  TGI: > 100 µM
HL-60(TB) leukemia
  GI50: > 100 µM
  TGI: > 100 µM
MDA-MB-231 breast
  GI50: 2.3 µM
  TGI: 6.44 µM
HOP-92 NSCLC
  GI50: 2.41 µM
  TGI: 8.23 µM
UACC-257 melanoma
  GI50: 69.9 µM
  TGI: > 100 µM
PC-3 prostate
  GI50: 6.35 µM
  TGI: > 100 µM
EKVX NSCLC
  GI50: > 100 µM
  TGI: > 100 µM
HS 578T breast
  GI50: 2.84 µM
  TGI: 8.23 µM
UACC-62 melanoma
  GI50: 12.9 µM
  TGI: 93.9 µM
COLO 205 colon
  GI50: > 100 µM
  TGI: > 100 µM
MOLT-4 leukemia
  GI50: > 100 µM
  TGI: > 100 µM
HCT-15 colon
  GI50: > 100 µM
  TGI: > 100 µM
OVCAR-4 ovarian
  GI50: 3.26 µM
  TGI: > 100 µM
MDA-MB-468 breast
  GI50: 3.35 µM
  TGI: 20 µM
SK-MEL-2 melanoma
  GI50: 13.8 µM
  TGI: 36.9 µM
ACHN renal
  GI50: 3.33 µM
  TGI: 11 µM
NCI-H522 lung
  GI50: 3.26 µM
  TGI: 32.5 µM
BT-549 breast
  GI50: 20.3 µM
  TGI: > 100 µM
M14 melanoma
  GI50: 28.2 µM
  TGI: > 100 µM
SN12C renal
  GI50: > 100 µM
  TGI: > 100 µM
OVCAR-3 ovarian
  GI50: 9.59 µM
  TGI: > 100 µM
SF-295 CNS
  GI50: 3.26 µM
  TGI: 10.8 µM
IGROV1 ovarian
  GI50: 27.6 µM
  TGI: > 100 µM
NCI/ADR-RES ovarian
  GI50: 6.53 µM
  TGI: > 100 µM
OVCAR-5 ovarian
  GI50: > 100 µM
  TGI: > 100 µM
786-0 renal
  GI50: 2.47 µM
  TGI: 6.64 µM
KM12 colon
  GI50: > 100 µM
  TGI: > 100 µM
SNB-19 CNS
  GI50: 3.41 µM
  TGI: 14.1 µM
OVCAR-8 ovarian
  GI50: 10.1 µM
  TGI: > 100 µM
A549 NSCLC
  GI50: 4.19 µM
  TGI: > 100 µM
MDA-MB-435
  GI50: > 100 µM
  TGI: > 100 µM
MALME-3M melanoma
  GI50: 6.71 µM
  TGI: 44.9 µM
SK-OV-3 ovarian
  GI50: 8.24 µM
  TGI: 27.2 µM
MCF7 breast
  GI50: > 100 µM
  TGI: > 100 µM
SNB-75 CNS
  GI50: 1.6 µM
  TGI: 7.67 µM
UO-31 renal
  GI50: 3.45 µM
  TGI: > 100 µM
SK-MEL-5 melanoma
  GI50: 6.85 µM
  TGI: > 100 µM
HCT-116 colon
  GI50: 3.21 µM
  TGI: > 100 µM
TK-10 renal
  GI50: 2.41 µM
  TGI: 6.62 µM
SK-MEL-28 melanoma
  GI50: 6.14 µM
  TGI: > 100 µM
DU-145 prostate
  GI50: 11.2 µM
  TGI: > 100 µM

## O=C(/C=C/c1ccco1)c1ccc(Nc2nc(Nc3ccc(F)cc3)nc(Nc3ccc(Cl)cc3)n2)cc1
MDA-MB-468 breast
  GI50: 22.8 µM
  TGI: > 100 µM

## CC(C)(C)Nc1nc2c(OCCc3ccccc3)cccn2c1-c1ccccc1Cl
MDA-MB-468 breast
  GI50: 2.5 µM
  TGI: 9.17 µM

## COc1ccc(C(=O)Cn2c(C(=O)c3ccc(Cl)cc3)nc3ccccc32)cc1
MDA-MB-468 breast
  GI50: 6.13 µM
  TGI: > 100 µM

## OC(c1cc2cc(Br)ccc2c2cc(Br)ccc12)C1CCCCN1 (centres undefined)
MDA-MB-468 breast
  GI50: 1.63 µM
  TGI: 3.08 µM

## CCN1C(=O)C/C(=C\C(C)=O)Nc2ccccc21
MDA-MB-468 breast
  GI50: > 100 µM
  TGI: > 100 µM
